This note sets out measurements from patent US11827628B2, “Compositions and methods for inhibition of the JAK pathway” (Rigel Pharmaceuticals, Inc., priority 2005, dated 2023).

This assay relates to up-regulation of ICAM-1 (CD54) by IFNγ in A549 lung epithelial cells. Put plainly: A549 Epithelial Line Stimulated with IFNγ (ICAM-1 surface expression, FACS). The assay is classed as cell-based, human. The note with it: A549 epithelial line stimulated with IFNγ; ICAM-1 expression by FACS; read-out: IC50, Example 43. The procedure, abridged: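 ICAM-1 (CD54) flow cytometry on live-gated A549 cells, geometric mean versus dose giving EC50. Cells received IFNγ at 75 ng/mL for 24 h after a 1 h compound pre-treatment spanning 30 μM to 14 nM in medium with 5% FBS and 0.3% DMSO.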
In the case of `Cc1noc(COc2ccc(Nc3nc(Nc4cccc(S(=O)(=O)NCc5oc(=O)oc5C)c4)ncc3F)cc2)n1` [Compound I-257, N2-{3-[(N-5-Methyl-1,3-dioxolene-2-one-4-yl)methylene]aminosulfonylphenyl}-5-fluoro-N4-[4-(3-methyl-1,2,4-oxadiazol-5-yl)methyleneoxyphenyl]-2,4-pyrimidinediamine], the IC50 is 3.08 µM.

In the case of `Cc1noc(COc2ccc(Nc3nc(Nc4ccc(C)c(S(N)(=O)=O)c4)ncc3F)cc2)n1` [Compound I-259, N2-(3-Aminosulfonyl-4-methylphenyl)-5-fluoro-N4-[4-(3-methyl-1,2,4-oxadiazol-5-yl)methyleneoxyphenyl]-2,4-pyrimidinediamine], the IC50 came to 7.51 µM.

Turning to `CNS(=O)(=O)c1cc(Nc2ncc(F)c(Nc3ccc(OCc4nc(C)no4)cc3)n2)ccc1C` [Compound I-260, 5-Fluoro-N2-[3-N-(methyl)aminosulfonyl-4-methylphenyl)-N4-[4-(3-methyl-1,2,4-oxadiazol-5-yl)methyleneoxyphenyl]-2,4-pyrimidinediamine], the IC50 amounted to 8.44 µM.

In the case of `Cc1noc(COc2ccc(Nc3nc(Nc4cc(C)c(Cl)c(S(N)(=O)=O)c4)ncc3F)cc2)n1` [Compound I-265, N2-(3-Aminosulfonyl-4-chloro-5-methylphenyl)-5-fluoro-N4-[4-(3-methyl-1,2,4-oxadiazol-5-yl)methyleneoxyphenyl]-2,4-pyrimidinediamine], the IC50 stood at 4.08 µM.

On to `Cc1noc(COc2ccc(Nc3nc(Nc4ccc(S(N)(=O)=O)cc4)ncc3F)cc2)n1` [Compound I-268, N2-(4-Aminosulfonylphenyl)-5-fluoro-N4-(4-[3-methyl-1,2,4-oxadiazol-5-yl]methyleneoxyphenyl)-2,4-pyrimidinediamine], for which the IC50 came out at 5.08 µM.

On to `Cc1nc(COc2ccc(Nc3nc(Nc4cccc(S(N)(=O)=O)c4)ncc3F)cc2)no1` [Compound I-276, N2-(3-Aminosulfonyl)phenyl-5-fluoro-N4-[4-(5-methyl-1,2,4-oxadiazol-3-yl)methoxy]phenyl-2,4-pyrimidinediamine], for which the IC50 was found to be 8.09 µM.

On to `Cc1nnc(COc2ccc(Nc3nc(Nc4cccc(S(N)(=O)=O)c4)ncc3F)cc2)o1` [Compound I-277, N2-(3-aminosulfonylphenyl)-5-fluoro-N4-[4-(5-methyl-1,3,4-oxadiazol-2-yl)methyleneoxyphenyl]-2,4-pyrimidinediamine], for which the IC50 was 6.91 µM.

`Cc1nnc(COc2ccc(Nc3nc(Nc4ccc(F)c(S(N)(=O)=O)c4)ncc3F)cc2)o1` [Compound I-278, N2-(3-Aminosulfonyl-4-fluorophenyl)-5-fluoro-N4-[4-(5-methyl-1,3,4-oxadiazol-2-yl)methyleneoxyphenyl]-2,4-pyrimidinediamine]: the IC50 is 11 µM.

For the compound `N#CCc1ccc(Nc2nc(Nc3cccc(S(N)(=O)=O)c3)ncc2F)cc1` [III-4, N2-(3-Aminosulfonyl)phenyl-N4-(4-cyanomethyl)phenyl-5-fluoro-2,4-pyrimidinediamine], the IC50 amounted to 8.37 µM.

Consider `Cc1ccc(Nc2ncc(F)c(Nc3ccc(CC#N)cc3)n2)cc1S(N)(=O)=O` [III-7, N2-(3-Aminosulfonyl-4-methyl)phenyl-N4-(4-cyanomethyl)phenyl-5-fluoro-2,4-pyrimidinediamine], for which the IC50 turned out to be 12.3 µM.

Turning to `N#CCc1ccc(Nc2nc(Nc3ccc(Cl)c(S(N)(=O)=O)c3)ncc2F)cc1` [III-8, N2-(3-Aminosulfonyl-4-chloro)phenyl-N4-(4-cyanomethyl)phenyl-5-fluoro-2,4-pyrimidinediamine], the IC50 is 14.5 µM.

On to `COc1cc(Nc2ncc(F)c(Nc3ccc(CC#N)cc3)n2)ccc1S(N)(=O)=O` [III-9, N2-(4-Aminosulfonyl-3-methoxy)phenyl-N4-(4-cyanomethyl)phenyl-5-fluoro-2,4-pyrimidinediamine], for which the IC50 came to 23.6 µM.

On to `Cc1ccc(Nc2ncc(C)c(Nc3ccc(CCC#N)cc3)n2)cc1S(N)(=O)=O` [III-11], for which the IC50 was found to be 2.24 µM.

`N#CCCc1ccc(Nc2nc(Nc3cccc(S(N)(=O)=O)c3)ncc2F)cc1` [III-14, N2-(3-aminosulfonylphenyl)-N4-[4-(cyanoethylene)phenyl]-5-fluoro-2,4-pyrimidinediamine]: the IC50 was determined as 3.6 µM.

Turning to `Cc1ccc(Nc2ncc(F)c(Nc3ccc(CCC#N)cc3)n2)cc1S(N)(=O)=O` [III-15, N2-(3-Aminosulfonyl-4-methylphenyl)-N4-[4-(cyanoethylene)phenyl]-5-fluoro-2,4-pyrimidinediamine], the IC50 amounted to 4.66 µM.

`N#CCCc1ccc(Nc2nc(Nc3ccc(F)c(S(N)(=O)=O)c3)ncc2F)cc1` [III-16, N2-(3-Aminosulfonyl-4-fluorophenyl)-N4-[4-(cyanoethylene)phenyl]-5-fluoro-2,4-pyrimidinediamine]: the IC50 is 7.24 µM.

Take `NS(=O)(=O)c1cccc(Nc2ncc(F)c(Nc3cccc(CNC(=O)C4CC4)c3)n2)c1` [III-39, N2-(3-aminosulfonyl)phenyl-N4-(3-cyclopropylcarbonylaminomethyl)phenyl-5-fluoro-2,4-pyrimidinediamine]: the IC50 turned out to be 4.15 µM.

Turning to “N2-[3-Aminosulfonyl-4-(4-methylpiperazin-1-yl)phenyl]-5-fluoro-N4-[2-fluoro-4-(5-methylisoxazol-3-yl)methyleneoxyphenyl]-2,4-pyrimidinediamine [Compound I-251]”, the IC50 is 34.9 µM.
